We go through 14 molecules from patent US20120245344A1 (NIPPON CHEMIPHAR CO., LTD., priority 2009, published 2012).

pEC50: −log10 of the molar value. Entries after “also recorded” stand apart in the source; their conditions may differ.

The target in one assay is T1, human GPR119 (Homo sapiens, UniProt Q8TDV5).
T1 construct: expressed in transfected cells; host or cells: Flp-in T-Rex-293 cells (Invitrogen #R78007), plasmid pcDNA5/FRT/TO, expression induced with tetracycline
T1 sequence (Q8TDV5 1-335): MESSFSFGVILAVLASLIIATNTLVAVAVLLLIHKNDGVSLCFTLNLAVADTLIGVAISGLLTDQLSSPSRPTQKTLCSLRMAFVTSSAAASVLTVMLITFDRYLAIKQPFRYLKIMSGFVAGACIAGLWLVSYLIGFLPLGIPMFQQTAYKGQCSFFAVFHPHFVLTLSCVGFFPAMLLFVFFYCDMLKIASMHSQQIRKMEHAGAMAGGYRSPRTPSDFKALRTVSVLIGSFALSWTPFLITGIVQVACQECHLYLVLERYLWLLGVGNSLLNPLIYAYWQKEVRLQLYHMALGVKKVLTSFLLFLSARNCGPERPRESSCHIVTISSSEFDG
Description: Measurement of intracellular cAMP in stable cell line expressing human GPR119 (GPR119 agonist effect). In kind it is cell-based. Particulars: for pEC50: increase of intracellular cAMP, Flp-in T-Rex-293 cells expressing human GPR119, 37° C. for 30 minutes; for GPR119 agonist effect (in words): statement in words on Tables 10 to 13.
Excerpt: The GPR119 agonist effect is studied by measuring the effect of an analyte on increase of intracellular amount of cAMP in human GPR119 introduced cells. The testing method is described below.
Human GPR119 gene (NM 178471) is purchased from ATCC (ATCC No. 10807349), and is amplyfied according to PCR to form BamHI site at 5′ side and Apa I site at 3′ side. The primers are […] (sequence No. 1) and […] (sequence No. 2). The PCR conditions are described below.
The double-stranded DNA is thermally denatured using a DNA polymerase (KOD-Plus-Ver. 2; TOYOBO #KOD-211) at 98° C. for 10 seconds in one cycle. The denatured single-stranded DNA is annealed with the primers at 55° C. for 30 seconds. The DNA is subjected to an extension reaction at 68° C. for 1 minute and 15 seconds. The above-mentioned steps are repeated in 35 cycles. The PCR product is inserted into pcDNA5/FRT/TO (Invitrogen #V6520-20) plasmid. Flp-in T-Rex-293 cells (Invitorogen #R78007) are transfected with the obtained plasmid. The method of transfection is conducted in accordance with the protocol of the product.
(§1) The stable cell line expressing human GPR119 prepared in the above-mentioned method is plated on a 96-well plate at the concentration of 2,500 cells/well using Dulbecco's Modified Eagle Medium (DMEM) containing 10% fetal bovine serum (FBS). Twenty-four hours after plating, tetracyclin (Invitrogen #Q10019) is added at the final concentration of 20 ng/mL to induce hGPR119 gene expression. Twenty-four hours after, the medium is removed, and the cells are stimulated with an assay buffer (0.5 mM IBMX PBS (−)) containing the test compound at 37° C. for 30 minutes. The amount of the intracellular cAMP is measured using a commercially available kit (HitHunter™ cAMP XS+Assay: GE Healthcare #90007503) and a reader (FLUOstar Optima: BMG LABTECH). The test compound is dissolved in 100% DMSO, and added at the final concentration of 1%.
Human GPR119 gene (NM 178471) was purchased from ATCC (ATCC No. 10807349), and is amplyfied according to PCR to form BamHI site at 5′ side and Apa I site at 3′ side. The primers were […] (sequence No. 1) and […] (sequence No. 2). The PCR conditions are described below. The double-stranded DNA was thermally denatured using a DNA polymerase (KOD-Plus-Ver. 2; TOYOBO #KOD-211) at 98° C. for 10 seconds in one cycle. The denatured single-stranded DNA was annealed with the primers at 55° C. for 30 seconds. The DNA was subjected to an extension reaction at 68° C. for 1 minute and 15 seconds. The above-mentioned steps were repeated in 35 cycles. The PCR product was inserted into pcDNA5/FRT/TO (Invitrogen #V6520-20) plasmid. Flp-in T-Rex-293 cells (Invitorogen #R78007) were transfected with the obtained plasmid. The method of transfection was conducted in accordance with the protocol of the product.
as §1, with “method was” for “method is”, “#Q10019) was” for “#Q10019) is”, “medium was” for “medium is”, “cells were” for “cells are”, “cAMP was” for “cAMP is”, “compound was” for “compound is”
The examination was performed by the method similar to Example 87 Pharmacological experiment 1-(1), -(2).

Assay [1] relates to glycemic excursions after glucose administration in normal mice. Put plainly: Oral glucose tolerance test in normal mice. The format is in vivo, mice (male ICR). Particulars: for Inhibition rate (%): 30 min before glucose 3 g/kg, area under the glycemic excursion curve 0-120 min versus vehicle. The method, then:
In this experiment, the inhibitory effect of an analyte on glycemic excursions is examined after glucose administration in normal mice. The test methods are described below.
Male 9-week-old ICR mice, habituated to the experimental environment for two weeks, are fasted for 18 hours and used to this experiment. Mice are orally administered the analyte or vehicle (polyethylene glycol 400:ethanol:Tween 80=8:1:1). After 30 minutes, they were orally given glucose at the dose of 3 g/kg.
Blood was collected at just before the analyte or vehicle administration (−30 minutes), immediately before glucose challenge (0 minute), 20 minutes, 40 minutes, 60 minutes, and 120 minutes after glucose ingestion to determine blood glucose levels.
Inhibition rate (%) of the analyte versus vehicle in areas under the glycemic excursion curve between 0 and 120 min after glucose challenge is determined.
In this experiment, we examined the inhibitory effect of test compound on glycemic excursions after glucose administration in normal mice. The test methods are shown as follows.
Male 9-week-old ICR mice, habituated to the experimental environment for two weeks, were fasted for 18 hours and used to this experiment. Mice were orally administered the test compound or vehicle (polyethylene glycol 400:ethanol:Tween80=8:1:1), and after 30 minutes, they were orally given glucose at the dose of 3 g/kg.
Blood was collected at just before the test compound or vehicle administration (−30 min), immediately before glucose challenge (0 min), 20 min, 40 min, 60 min and 120 min after glucose ingestion and then blood glucose levels were determined.
Inhibition rate (%) of the test compound versus vehicle in areas under the glycemic excursion curve between 0 and 120 min after glucose challenge was determined.
Except for the dose of test compounds made 1 mg/kg, the examination was performed by the method similar to Example 89 oral glucose tolerance test in normal mice.

Where [2] appears, read: 3 mg/kg, statement in words on Table 14.

In the case of `CC(C)(C)OC(=O)N1CCC(c2ccc(Cn3ccc4cc(S(C)(=O)=O)ccc43)nc2)CC1` [Example 1, tert-Butyl 4-[2-(5-methanesulfonylindol-1-ylmethyl)pyridin-5-yl]piperidine-1-carboxylate], on human GPR119, the pEC50 – broadly, −log10 of the EC50, conventionally taken in molar units – is 7.67. The “Inhibition rate (%)” value in assay [1] (3 mg/kg oral) is listed as 37.9%. Further, the “inhibitory effect on glycemic excursions (in words)” value (shortened to “inhibitory effect”) in assay [1] (setting [2]) was “excellent inhibitory effect on glycemic excursions; also recorded: excellent inhibitory effect of glycemic excursions”.

`CC(C)(C)OC(=O)N1CCC(c2ccc(CN3CCc4cc(S(C)(=O)=O)ccc43)nc2)CC1` [Example 2]: on human GPR119, the pEC50 is 7.69 and the “GPR119 agonist effect (in words)” value is “excellent GPR119 agonist effect”. Moreover, the “Inhibition rate (%)” value in assay [1] (3 mg/kg oral) is recorded as 33.7%. Further, in assay [1] (setting [2]), the “inhibitory effect” value is “excellent inhibitory effect on glycemic excursions; also recorded: excellent inhibitory effect of glycemic excursions”.

`CC(C)(C)OC(=O)N1CCC(c2ccc(Cn3ccc4cc(S(C)(=O)=O)c(F)cc43)nc2)CC1` [Example 24, tert-Butyl 4-[2-(6-fluoro-5-methanesulfonylindol-1-ylmethyl)pyridin-5-yl]piperidine-1-carboxylate] gave a pEC50 on human GPR119 of 7.72. Also, the “Inhibition rate (%)” value in assay [1] (1 mg/kg oral) is listed as 37.9%. For the same molecule, the “inhibitory effect” value in assay [1] (1 mg/kg, statement in words on Table 15) is listed as “excellent inhibitory effect on glycemic excursions; also recorded: excellent inhibitory effect of glycemic excursions”.

`CC(C)(C)OC(=O)N1CCC(c2ccc(Cn3ccc4c(F)c(S(C)(=O)=O)c(F)cc43)nc2)CC1` [Example 57, tert-Butyl 4-[2-(4,6-difluoro-5-methanesulfonylindol-1-ylmethyl)pyridin-5-yl]piperidine-1-carboxylate] showed a pEC50 at human GPR119 of 7.76.

Molecule `Cc1cc(C2CCN(C(=O)OC(C)(C)C)CC2)cnc1Cn1ccc2cc(-n3cncn3)ccc21` [Example 58, tert-Butyl 4-[3-methyl-2-[5-(1,2,4-triazol-1-yl)indol-1-ylmethyl]pyridin-5-yl]piperidine-1-carboxylate] gave a pEC50 on human GPR119 of 7.88.

For `Cc1cc(C2CCN(C(=O)OC(C)C)CC2)cnc1Cn1ccc2cc(-n3cncn3)ccc21` [Example 59, Isopropyl 4-[3-methyl-2-[5-(1,2,4-triazol-1-yl)indol-1-ylmethyl]pyridin-5-yl]piperidine-1-carboxylate], the pEC50 on human GPR119 is 6.98. Against the preceding molecule, the pEC50 is 0.90 log units lower.

Consider `CC1CN(C(=O)OC(C)(C)C)CC=C1c1ccc(Cn2ccc3c(F)c(S(C)(=O)=O)c(F)cc32)nc1` (stereo not shown) [Example 62, tert-Butyl 4-[2-(4,6-difluoro-5-methanesulfonylindol-1-ylmethyl)pyridin-5-yl]-3-methyl-3,6-dihydro-2H-pyridine-1-carboxylate], for which the pEC50 at human GPR119 is 7.19.

`CC(C)OC(=O)N1CC=C(c2ccc(Cn3ccc4cc(-n5cnnn5)cc(F)c43)nc2)C(C)C1` (stereo not shown) [Example 67, Isopropyl 4-[2-[7-fluoro-5-(tetrazol-1-yl)indol-1-ylmethyl]pyridin-5-yl]-3-methyl-3,6-dihydro-2H-pyridine-1-carboxylate]: the negative logarithm of the EC50 (pEC50) at human GPR119 was 7.34.

At human GPR119, `C[C@H]1C=C(c2ccc(Cn3ccc4cc(S(C)(=O)=O)ccc43)nc2)C[C@H](C)N1C(=O)OC(C)(C)C` [Example 68, tert-Butyl (2S,6S)-2,6-dimethyl-4-[2-(5-methanesulfonylindol-1-ylmethyl)pyridin-5-yl]-3,6-dihydro-2H-pyridine-1-carboxylate] gave a pEC50 of 7.01.

On to `C[C@H]1CC(c2ccc(Cn3ccc4cc(S(C)(=O)=O)ccc43)nc2)C[C@H](C)N1C(=O)OC(C)(C)C` (stereo partly drawn) [Example 69, tert-Butyl (2S,6S)-2,6-dimethyl-4-[2-(5-methanesulfonylindol-1-ylmethyl)pyridin-5-yl]piperidine-1-carboxylate], for which the negative logarithm of the EC50 (pEC50) on human GPR119 is 7.76.

At human GPR119, `COC(=O)c1ccc2c(ccn2Cc2ncc(C3CCN(C(=O)OC(C)(C)C)CC3)cc2F)c1` [Example 71, tert-Butyl 4-[3-fluoro-2-[5-(methoxycarbonyl)indol-1-ylmethyl)pyridin-5-yl]piperidine-1-carboxylate] showed a pEC50 of 6.72.

Molecule `CCC1CN(C(=O)OC(C)(C)C)CC=C1c1ccc(Cn2ccc3cc(S(C)(=O)=O)ccc32)nc1` (stereo not shown) [Example 73, tert-Butyl 3-ethyl-4-[2-(5-methanesulfonylindol-1-ylmethyl)pyridin-5-yl]-3,6-dihydro-2H-pyridine-1-carboxylate] had a negative-log EC50 (pEC50) at human GPR119 of 7.49. This pEC50 is 0.77 log units higher than that of the molecule before.

In the case of `CC(C)(C)OC(=O)N1CCC(F)(c2ccc(Cn3ccc4cc(S(C)(=O)=O)ccc43)nc2)CC1` [Example 76, tert-Butyl 4-fluoro-4-[2-(5-methanesulfonylindol-1-ylmethyl)pyridin-5-yl]piperidine-1-carboxylate], the pEC50 on human GPR119 was 7.37.

For `CC(C)OC(=O)N1CCC(c2cnc(Cn3ccc4cc(-n5cnnn5)cc(F)c43)c(F)c2)CC1` [Example 83, Isopropyl 4-[3-fluoro-2-[7-fluoro-5-(tetrazol-1-yl)indol-1-ylmethyl]pyridin-5-yl]piperidine-1-carboxylate], on human GPR119, the pEC50 was 7.98 and the “GPR119 agonist effect (in words)” value is listed as “excellent GPR119 agonist effect”.
